# Legend:
# [1] = system: healthy subjects; test: Ventilation, safety and pharmacokinetics in human volunteers, single-rising dose IV infusion; type: in vivo
# Experimental: A randomized, double-blind, placebo-controlled nine-period single-rising dose study in three alternating cohorts of healthy subjects was conducted at a single center in conformance with Good Clinical Practice. Compound (XXXVI) was synthesized according to Good Manufacturing Practice. Three (3) Cohorts of ten subjects each were randomized to treatment in a ratio of 4:1 (8 treated, 2 placebo) in a rotating panel design. Subjects in the first cohort participated in dosing periods 1, 4, and 7, with the second cohort participating in dosing periods 2, 5, and 8, and third cohort participating in dosing period 3, 6, and 9. The subjects who received placebo in their first dosing period also received placebo in their second and third dosing periods. Similarly, drug-treated subjects received drug all three dosing periods. In the first Cohort, on the first dose only, 2 subjects were dosed on Day 1 with one subject receiving active drug and one subject receiving placebo. Following a review of available safety and tolerability data (excluding PK), the remainder of Cohort 1 was dosed the following day. Subjects were dosed as detailed in Table 11 with a minimum of 1-week washout between doses.
# Subjects could be screened up to 28 days before the treatment period. On the evening before dosing, subjects were admitted to the clinical site and baseline evaluations were conducted. After an overnight fast, subjects received an intravenous infusion of Compound (XXXVI) or placebo then PD, PK, and safety evaluations were conducted during the next 24 hours. Cohort 1 was enrolled to the lowest dose group and randomized to Compound (XXXVI) or placebo. Safety and tolerability evaluations for each dose included all safety assessments obtained through approximately 24 hours post-dose.
# Pharmacodynamic endpoints were assessed by two independent systems consisting of Dräger Infinity patient monitoring system and a portable NOX-T3 respiratory monitoring system. The Dräger system is an inpatient intensive care/postoperative monitoring system used to monitor minute ventilation, respiratory rate (RR), tidal volume (VT) via a pneumotachometer (Capnostat sensor), transcutaneous oxygen hemoglobin saturation (SpO2), and end tidal carbon dioxide (ETCO2) (Capnostat sensor). NOX/T3 is a portable monitoring device used for home diagnostic sleep apnea assessments. In this study, NOX device monitored RR, VT via respiratory inductance plethysmography (RIP), SpO2 (Nonin), actigraphy, nasal air flow, and audio recording of the dosing session. In addition to monitoring pharmacodynamic effects, the Dräger system was also used to monitor subject real-time safety. Standard safety assessments were measured repeatedly throughout the dosing session, and consisted of vital signs (BP, HR, RR, temperature (oral)), Ramsay Sedation Scale (RSS), and pulmonary function testing.
# Test Product, Dose, Mode of Administration, Batch and Lot No(s): Compound (XXXVI) was prepared as a sterile product for injection ready for dilution in normal saline and administration by infusion. Doses were based on the subject's weight on a milligram per kilogram basis and were administered over a 1-, 2-, 3- or 4-hour infusion as described in Table 11. Compound (XXXVI) (Batch No. 04110511) was provided by the Sponsor as a 50 mL fill of 10 mg/mL solution (GAL-021 freebase) in 20 mM citrate for IV Injection; Saline was sourced by the Investigator from Baxter, Lot 11F03E7L.
# Thirty (30) subjects received single IV infusions over 1, 2, 3, or 4 hours on the first day of each of 3 periods for a total of 3 dosing days per subject. Per protocol, there was to be a minimum one week washout between doses of Compound (XXXVI) for all subjects. Actual washout periods ranged from 9 to 20 days overall.
# Pharmacodynamic (PD) evaluations included tidal volume, respiratory rate, minute ventilation, end-tidal CO2, and transcutaneous hemoglobin oxygen saturation (SpO2). […]
# [2] = pKa; type: physicochemical
# [3] = IV infusion 0.102 to 2.16 mg/kg, 1 to 4 hours
smiles,measurement,setting,value
"CCCNc1nc(NCCC)nc(N(C)OC)n1.O=S(=O)(O)O [XXXVI, N-(4,6-Bis-n-propylamino-[1,3,5]triazin-2-yl)-N,O-dimethyl-hydroxylamine hydrogen sulfate]",increase in tidal volume,[1]; 0.016 mg/kg dose (so in the source),< 10%
same,minute ventilation,[1]; 0.016 mg/kg/min x 1 hour,stimulated minute ventilation
same,safety and tolerability,"[1]; 0.102-2.16 mg/kg IV, durations 1 to 4 hours",generally safe and well tolerated
same,dose proportionality of concentration at 1 hour and AUC,[1]; [3],dose proportional
same,pharmacokinetic behaviour,[1]; [3],well-behaved pharmacokinetically
same,change in respiratory rate,[1]; all doses,< 10%
same,increase in minute ventilation,"[1]; highest infusion rate (0.016 mg/kg/min x 1 hour), first 2 hours after start of infusion",~27%
same,pKa,[2],5.6

# — US9162992B2, “Compounds and compositions for treatment of breathing control disorders or diseases” (GALLEON PHARMACEUTICALS, INC., priority 2010, dated 2015)
